Laboratory results: ChEMBL document CHEMBL3228010, “Potential antitumor agents. 29. Quantitative structure-activity relationships for the antileukemic bisquaternary ammonium heterocycles” (J Med Chem, 1979)

Experiments:
Mus musculus = experiment: Toxicity in ip dosed C3H X DBA2 F1 hybrid mouse […] with mouse L1210 cells on day 0 and dosed once daily on days 1 to 5 measured after 50 days; type: organism-based; conditions: in vivo, 1200 h
L1210 [1] = experiment: Antitumor activity against mouse L1210 cells […] in ip dosed C3H X DBA2 F1 hybrid mouse on day 0 and dosed at LD10 level once daily on days 1 to 5 assessed as increase in life span relative to control; type: functional
[2] = Lipophilic-hydrophilic balance, Rm of the compound by partition chromatography; type: physicochemical
L1210 [3] = experiment: Antitumor activity against mouse L1210 cells […] in ip dosed C3H X DBA2 F1 hybrid mouse on day 0 and dosed once daily on days 1 to 5 assessed as increase in life span relative to control; type: functional

Row | Structure (SMILES) | LD10 (Mus musculus) [mg/kg] | log(ILSmax) (L1210 [1]) | Rm [2] | D40 (L1210 [3]) [mg/kg]
1 | CC[n+]1cccc2cc(NC(=O)/C=C/c3ccc(C(=O)Nc4ccc5c(ccc[n+]5CC)c4)cc3)ccc21.Cc1ccc(S(=O)(=O)[O-])cc1.Cc1ccc(S(=O)(=O)[O-])cc1 | 9 | 1.7 | 0.11 | 5
2 | CCCC[n+]1cccc2cc(NC(=O)COc3ccc(C(=O)Nc4ccc5c(ccc[n+]5CCCC)c4)cc3)ccc21.Cc1ccc(S(=O)(=O)[O-])cc1.Cc1ccc(S(=O)(=O)[O-])cc1 | 210 | 1.96 | 0.41 | 80
3 | CCC[n+]1cc(-c2ccc(NC(=O)c3ccc(Nc4cc[n+](CCC)c5ccc(N)cc45)cc3N)cc2)c(N)nc1N.Cc1ccc(S(=O)(=O)[O-])cc1.Cc1ccc(S(=O)(=O)[O-])cc1 | 50 | 2.03 | 0.56 | 13.7
4 | CCC[n+]1ccc(Nc2ccc(C(=O)Nc3ccc(/C(C)=N/NC(=N)N)cc3)c(N)c2)c2cc(N)ccc21.Cc1ccc(S(=O)(=O)O)cc1.Cc1ccc(S(=O)(=O)[O-])cc1 | 60 | 2.2 | 0.07 | 10
5 | CCC[n+]1cccc2cc(NC(=O)c3ccc(C(=O)Nc4ccc5c(ccc[n+]5CCC)c4)cc3)ccc21.Cc1ccc(S(=O)(=O)[O-])cc1.Cc1ccc(S(=O)(=O)[O-])cc1 | 21 | 1.89 | 0.3 | 15
6 | CC[n+]1cccc(NC(=O)c2ccc(NC(=O)c3ccc(C(=O)Nc4ccc(C(=O)Nc5ccc[n+](CC)c5)cc4)c(OC)c3)cc2)c1.Cc1ccc(S(=O)(=O)[O-])cc1.Cc1ccc(S(=O)(=O)[O-])cc1 | 20 | 1.85 | 0.55 | 18
7 | CCC[n+]1cccc2cc(NC(=O)c3ccc(NC(=O)c4ccc(C(=O)Nc5ccc6c(ccc[n+]6CCC)c5)cc4)cc3)ccc21.Cc1ccc(S(=O)(=O)[O-])cc1.Cc1ccc(S(=O)(=O)[O-])cc1 | 95 | 1.92 | -0.21 | 38
8 | CCCC[n+]1cccc2cc(NC(=O)c3ccc(-c4ccc(-c5ccc(-c6ccc(C(=O)Nc7ccc8c(ccc[n+]8CCCC)c7)cc6)cc5)cc4)cc3)ccc21.Cc1ccc(S(=O)(=O)[O-])cc1.Cc1ccc(S(=O)(=O)[O-])cc1 | 57 | 1.73 | 0.74 | 15
9 | CC[n+]1cccc(NC(=O)c2ccc(NC(=O)c3ccc(C(=O)Nc4ccc(C(=O)Nc5ccc[n+](CC)c5)c(N)c4)cc3)cc2N)c1.Cc1ccc(S(=O)(=O)[O-])cc1.Cc1ccc(S(=O)(=O)[O-])cc1 | 10 | 2.18 | -0.65 | 3.2
10 | CC[n+]1cccc(NC(=O)c2ccc(NC(=O)c3cccc(C(=O)Nc4ccc(C(=O)Nc5ccc[n+](CC)c5)cc4)c3)cc2)c1.Cc1ccc(S(=O)(=O)[O-])cc1.Cc1ccc(S(=O)(=O)[O-])cc1 | 12 | 1.6 | 0.51 | 12
11 | CCC[n+]1cccc2cc(NC(=O)c3ccc(C(=O)Nc4ccc(NC(=O)c5ccc6c(ccc[n+]6CCC)c5)cc4)cc3)ccc21.Cc1ccc(S(=O)(=O)[O-])cc1.Cc1ccc(S(=O)(=O)[O-])cc1 | 80 | 2.08 | 0 | 60
12 | CC[n+]1cccc(NC(=O)c2ccc(NC(=O)c3ccc(C(=O)Nc4ccc(C(=O)Nc5ccc[n+](CC)c5)cc4OC)cc3)c(OC)c2)c1.Cc1ccc(S(=O)(=O)[O-])cc1.Cc1ccc(S(=O)(=O)[O-])cc1 | 25 | 1.86 | -0.15 | 10.3
